ChEMBL document CHEMBL1135447, “Design and synthesis of tricyclic compounds with enone functionalities in rings A and C: a novel class of highly active inhibitors of nitric oxide production in mouse macrophages” (J Med Chem, 2002)

Organism: Mus musculus
Test: Inhibitory activity against nitric oxide production induced by interferon-gamma (IFN-gamma) in mouse macrophages
Type: functional
Details: not given

Row | SMILES | IC50 [nM]
1 | CC1(C)C(=O)C(C#N)=C[C@]2(C)C3=CC(=O)C=C[C@]3(C)CC[C@@H]12 (stereo in doubt; (+)-6) | 58
2 | CC1(C)C(=O)C(C#N)=C[C@]2(C)C3=CC(=O)C=C[C@]3(C)CC[C@@H]12 (stereo in doubt; (-)-6) | 64

Same assay, conditions: Mus musculus

Row | SMILES | IC50 [nM]
3 | COC(=O)C1=C[C@]2(C)CC[C@H]3C(C)(C)C(=O)C(C#N)=C[C@]3(C)C2=CC1=O (racemic) | 91
4 | CC(=O)O[C@@H]1CC(=O)C=C2[C@@]3(C)C=C(C#N)C(=O)C(C)(C)[C@@H]3CC[C@]21C (racemic) | 53
5 | CC1(C)C(=O)C(C#N)=C[C@]2(C)C3=CC(=O)C[C@@H](O)[C@]3(C)CC[C@@H]12 (racemic) | 75
6 | CC1(C)C(=O)C(C#N)=C[C@]2(C)C3=CC(=O)C(C(N)=O)=C[C@]3(C)CC[C@@H]12 (racemic) | 61
7 | CC1(C)C(=O)C(C#N)=C[C@]2(C)C3=CCC[C@@H](O)[C@]3(C)CC[C@@H]12 (racemic) | 310
8 | CC1(C)C(=O)C(C#N)=C[C@]2(C)C3=CC(=O)C(C#N)=C[C@]3(C)CC[C@@H]12 (racemic) | 2.1
9 | CC(=O)O[C@@H]1CCC=C2[C@@]3(C)C=C(C#N)C(=O)C(C)(C)[C@@H]3CC[C@]21C (racemic) | 480
10 | CC1(C)C(=O)C(C#N)=C[C@]2(C)C3=CC(=O)C(C(=O)O)=C[C@]3(C)CC[C@@H]12 (racemic) | 1600
11 | CC1(C)CC[C@]2(C(=O)O)CC[C@]3(C)[C@H](C(=O)C=C4[C@@]5(C)C=C(C#N)C(=O)C(C)(C)[C@@H]5CC[C@]43C)[C@@H]2C1 [BARDOXOLONE] | 0.5
12 | CC1(C)CC[C@]2(C(=O)O)CC[C@]3(C)C(=CC[C@@H]4[C@@]5(C)CC[C@H](O)C(C)(C)[C@@H]5CC[C@]43C)[C@@H]2C1 [OLEANOLIC_ACID] | > 40000
13 | CC1(C)C(=O)C(C#N)=C[C@]2(C)C3=CC(=O)C=C[C@]3(C)CC[C@@H]12 (racemic) | 61
